Source: ChEMBL document CHEMBL3352736, “Synthesis and preliminary biological evaluation of new antiproliferative aromatic analogues of 1α,25-dihydroxyvitamin D3” (Eur J Med Chem, 2014)

Test system: HL-60
Assay: […] of human HL60 cells incubated for 144 hrs by Wst-1 dye based assay
Format: functional
Details: HL-60, 144 h

| Compound | IC50 [µM] |
| --- | --- |
| CC(C)CCC[C@@H](C)[C@H]1CC[C@H]2/C(=C/c3cccc(C(O)CCO)c3)CCC[C@]12C (some centres not stated) | 5.4 |
| C[C@H](CCCC(C)(C)O)[C@H]1CC[C@H]2/C(=C/c3cccc(C(O)CCO)c3)CCC[C@]12C (some centres not stated) | 1.4 |
| C[C@H](CC#CC(C)(C)O)[C@H]1CC[C@H]2/C(=C/c3cccc(C(O)CCO)c3)CCC[C@]12C (some centres not stated) | 7.8 |
| CC(C)CCC[C@@H](C)[C@H]1CC[C@H]2/C(=C/c3ccc(CO)c(CO)c3)CCC[C@]12C | 63.2 |
| C[C@H](CC#CC(C)(C)O)[C@H]1CC[C@H]2/C(=C/c3ccc(CO)c(CO)c3)CCC[C@]12C | 0.6 |
| CC(C)CCC[C@@H](C)[C@H]1CC[C@H]2/C(=C/c3cccc(CO)c3CO)CCC[C@]12C | 32.4 |
| C[C@H](CC#CC(C)(C)O)[C@H]1CC[C@H]2/C(=C/c3cccc(CO)c3CO)CCC[C@]12C | > 100 |
